What was measured:
[1] = tested on: BaF3-tel-PDGFRα (stably expressing PDGFRα kinase); assay: Growth of BaF3-tel-PDGFRα cells, Cell Titer-Glo, 72 h; assay type: cell-based, mouse
Description: (§1) In this example, mouse primary B cell BaF3 (purchased from ATCC, U.S.A.) was used. In addition, in this example, mouse BaF3-tel-PDGFRα (stably expressing PDGFRα kinase), mouse BaF3-tel-PDGFRβ (stably expressing PDGFRβ kinase), BaF3-P210 (stably expressing ABL kinase), BaF3-P210-T315I (stably expressing ABL-T315I kinase), BaF3-FL-BRAF-V600E (stably expressing BRAF-V600E kinase), BaF3-TEL-cKIT (stably expressing cKIT kinase), BaF3-TEL-VEGFR2 (stably expressing VEGFR2 kinase), BaF3-TEL-FGFR2 (stably expressing FGFR2 kinase) were also used. The above-mentioned cell trains were all constructed in our laboratory by the method as follows. The sequences of human BCR-ABL (P210 or P210/T315I mutated), full-length BRAF-V600E, cKIT, VEGFR2, FGFR2, PDGFRα, PDGFRβ kinase region were amplified respectively via PCR, and inserted respectively into a MSCV-Puro vector (purchased from Clontech) having a N-terminal TEL fragment and/or NPM fragment and/or TPR fragment, and stably transferred into mouse BaF3 cells by the retroviral method, and the growth factor IL-3 was removed. Eventually, cell lines which are transferred into proteins depending on PDGFRα, PDGFRβ were obtained.
(§2) In this example, solutions of the test compound at different concentrations (0.000508 μM, 0.00152 μM, 0.00457 μM, 0.0137 μM, 0.0411 μM, 0.123 μM, 0.370 μM, 1.11 μM, 3.33 μM, 10 μM) were added to the above cells. The cells were incubated for 72 hours.

BaF3 = assay: Growth of parental BaF3 cells, Cell Titer-Glo, 72 h; assay type: cell-based; settings: Mus musculus
Description: as §1, §2

[2] = tested on: BaF3-tel-PDGFRβ (stably expressing PDGFRβ kinase); assay: Growth of BaF3-tel-PDGFRβ cells, Cell Titer-Glo, 72 h; assay type: cell-based, mouse
Description: as §1, §2

[3] = tested on: pulmonary arterial hypertension (PAH); assay: Rat model of pulmonary arterial hypertension (PAH), monocrotaline-induced; assay type: in vivo; settings: 50 mg/kg by gavage, 28 days
Protocol: SCXK (SU) 2017-0001. These rats were fed with conventional pellet feeds (Jiangsu Xietong Bio. Co., Ltd.), and were raised in a clean animal room with 12h/12h light/dark cycle. The rats were fed with foods and drinking water on an ad libitum basis. The temperature was maintained at 20-26° C., and the relative humidity was 40-70%. 120 SD rats were divided into 24 cages with 5 rats per group. […] The animals were treated in strict accordance with animal ethics regulations throughout the experiment. According to the method described in “Pharmaceutical experimental animal models: Fabrication and application” and the Standard Operating Procedure for PAH Model Construction of Model Animal Center, rats were intraperitoneally injected with a solution of 1% monocrotaline (MCT, purchased from Sigma, U.S.A.) once at a dose of 35 mg/kg. On Day 7 after the first injection of MCT, MCT was injected again at a dose of 20 mg/kg. The rats in the normal control group were intraperitoneally injected with an equivalent amount of water as a blank solvent. The specific steps were as follows: After the rats in each of the cages were fasted for 8 hours, each of the rats was weighed and recorded for the basic body weight after fasting; based on the measured basic body weight for each of the rats, the amount of MCT required to be injected for each of the rats was calculated according to the modeling dose of 35 mg/kg; based on the amount of MCT required to be injected for each of the rats, the dose for injection of a 1% MCT solution was calculated; the rats were fixed in a holder and intraperitoneally injected with the 1% MCT solution at the calculated dose; the rats were returned to the cages for routine feeding after the injection. […] The blood gas analyzer was operated following the standard operation procedure. […] Each of the rats was administered by gavage once a day starting from the day of regrouping at Week 4. The rats in the negative control group were daily administered by gavage with an equal volume of methylcellulose as vehicle. The rats in each of the groups were administered by gavage for consecutive 4 weeks (i.e., 28 days). […] The rats were weighed after fasting overnight twice a week. The administration dosage was calculated based on the weighing results. […] After the rats were under anesthesia, the pulmonary arterial pressure and the right ventricular systolic pressure of rats were measured. […] The steps were as follows. A No. 3.5 umbilical vein catheter was connected to a system pressure transducer. A formulated solution of […] sodium (purchased from Sangon) was filled into the transducer and the catheter, and bubbles were discharged. The anesthetized rat was placed on a surgical anatomical plate that is adjustable in its temperature. The temperature of the plate was adjusted to be maintained at about 37° C. The rat was fixed in supine position. The neck skin was cut with scissors to the edge of the clavicle, followed by blunt dissection of subcutaneous tissues and muscles, exposing the right external jugular vein. The adipose tissue on the surface was removed with ophthalmic surgical scissors. The external jugular vein was ligated at the […] surgical thread, and a loose knot was made at the proximal end for reserve. The external jugular vein was gently lifted with ophthalmic tweezers and cut with ophthalmic scissors to make a “V” opening. The catheter was quickly inserted, and the loose knot at the proximal end was tightened slightly to prevent bleeding. […] The catheter was further inserted slowly forward, and entered into the pulmonary artery at about 5 cm. […] The blood was transferred into an anticoagulation tube, and loaded in a blood gas analyzer to determine the indexes of partial pressure of oxygen (pO2), partial pressure of carbon dioxide (pCO2) and blood oxygen saturation (SaO2) in the blood.

GI50 [1] [nM]	GI50 [2] [nM]	Compound	GI50 (BaF3) [nM]	RVI (right ventricular hypertrophy index) decrease as compared with the negative control group [3] [%]
< 10	< 10	CN1CCN(c2cncc(-c3cn(-c4cc(NC(=O)c5cccc(C(F)(F)F)n5)ccc4F)nn3)c2)CC1 [Compound 24, N-(4-fluoro-3-(4-(5-(4-methylpiperazin-1-yl)pyridin-3-yl)-1H-1,2,3-triazol-1-yl)phenyl)-6-(trifluoromethyl)picolinamide]	4760	–
< 10	< 10	Cc1ccc(NC(=O)c2cc(C(F)(F)F)ccn2)cc1-n1cc(-c2cncc(N3CC4(COC4)C3)c2)cn1 [Compound 35, N-(3-(4-(5-(2-oxa-6-aza-spiro[3.3]hept-6-yl]pyridin-3-yl)-1H-pyrazol-1-yl)-4-methylphenyl)-4-(trifluoromethyl)picolinamide]	5840	–
1.4	1.4	Cc1ccc(NC(=O)c2ccnc(C(F)(F)F)c2)cc1-n1cc(-c2cnccc2OCC2CCOCC2)cn1 [Compound 3, N-(4-methyl-3-(4-(4-((tetrahydropyran-4-yl)methoxy)pyridin-3-yl)-1H-pyrazol-1-yl)phenyl)-2-(trifluoromethyl)isonicotinamide]	6500	–
< 10	< 10	CN1CCN(c2cncc(-c3cn(-c4cc(NC(=O)c5cc(C(F)(F)F)ccn5)ccc4F)nn3)c2)CC1 [Compound 27, N-(4-fluoro-3-(4-(5-(4-methylpiperazin-1-yl)pyridin-3-yl)-1H-1,2,3-triazol-1-yl)phenyl)-4-(trifluoromethyl)picolinamide]	4730	–
< 0.3	1	Cc1ccc(NC(=O)c2cccc(C(F)(F)F)n2)cc1-n1cc(-c2cnccc2OC2COC2)cn1 [Compound 6, N-(4-methyl-3-(4-(4-(oxetan-3-yloxy)pyridin-3-yl)-1H-pyrazol-1-yl)phenyl)-6-(trifluoromethyl)picolinamide]	> 10000	–
< 10	< 10	Cc1ccc(NC(=O)c2cccc(C(F)(F)F)n2)cc1-n1cc(-c2cncc(N3CC4(COC4)C3)c2)cn1 [Compound 32, N-(3-(4-(5-(2-oxa-6-aza-spiro[3.3]hept-6-yl]pyridin-3-yl)-1H-pyrazol-1-yl)-4-methylphenyl)-6-(trifluoromethyl)picolinamide]	9200	–
< 10	< 10	CN1CCN(c2cncc(-c3cn(-c4cc(NC(=O)c5ccnc(C(F)(F)F)c5)ccc4F)nn3)c2)CC1 [Compound 25, N-(4-fluoro-3-(4-(5-(4-methylpiperazin-1-yl)pyridin-3-yl)-1H-1,2,3-triazol-1-yl)phenyl)-2-(trifluoromethyl) isonicotinamide]	5550	–
< 0.3	< 0.3	Cc1ccc(NC(=O)c2ccnc(C(F)(F)F)c2)cc1-n1cc(-c2cnccc2OCCN2CCOCC2)cn1 [Compound 5, N-(4-methyl-3-(4-(4-(2-morpholinoethoxy)pyridin-3-yl)-1H-pyrazol-1-yl)phenyl)-2-(trifluoromethyl)isonicotinamide]	~10000	–
–	–	COc1ccccc1Oc1c(NS(=O)(=O)c2ccc(C(C)(C)C)cc2)nc(-c2ncccn2)nc1OCCO [bosentan, reference compound]	–	15.7
< 10	< 10	Cc1ccc(NC(=O)c2cc(C(F)(F)F)ccn2)cc1-n1cc(-c2cncc(N3CC4(COC4)C3)c2)nn1 [Compound 41, N-(3-(4-(5-(2-oxa-6-aza-spiro[3.3]hept-6-yl]pyridin-3-yl)-1H-1,2,3-triazol-1-yl)-4-methylphenyl)-4-(trifluoromethyl)picolinamide]	3660	–
< 10	< 10	Cc1ccc(NC(=O)c2cccc(C(F)(F)F)n2)cc1-n1cc(-c2cncc(N3CC4(COC4)C3)c2)nn1 [Compound 38, N-(3-(4-(5-(2-oxa-6-aza-spiro[3.3]hept-6-yl]pyridin-3-yl)-1H-1,2,3-triazol-1-yl)-4-methylphenyl)-6-(trifluoromethyl)picolinamide]	> 10000	–
< 1.5	< 1.5	Cc1ccc(NC(=O)c2cccc(Cl)n2)cc1-n1cc(-c2cncc(N3CCN(C)CC3)c2)cn1 [Compound 17, 6-chloro-N-(4-methyl-3-(4-(5-(4-methylpiperazin-1-yl)pyridin-3-yl)-1H-pyrazol-1-yl)phenyl)picolinamide]	2800	–
< 10	< 10	Cc1ccc(NC(=O)c2ccnc(C(F)(F)F)c2)cc1-n1cc(-c2cncc(N3CC4(COC4)C3)c2)nn1 [Compound 39, N-(3-(4-(5-(2-oxa-6-aza-spiro[3.3]hept-6-yl]pyridin-3-yl)-1H-1,2,3-triazol-1-yl)-4-methylphenyl)-2-(trifluoromethyl)isonicotinamide]	> 10000	–

Source: US12310963B2, “Pyrazole derivatives and use thereof” (Tarapeutics Science Inc., priority 2019, dated 2025)
